# Measurements from patent US20230047816A1 (priority 2018, published 2023).
# Experiments:
# [1] = test system: iPSC-derived neural precursor cells (NPC) from CLN7 patients; assay: Perinuclear mitochondria in iPSC-derived neural precursor cells from CLN7 patients; format: cell-based; details: FIG. 16
# [2] = test system: iPSC-derived neural precursor cells (NPC) from CLN7 patients; assay: Patient-derived neural precursor cells, ATP5A immunocytochemistry; format: cell-based, human
# Description: iPSC were generated from two CLN7 patients (Pa380 and Pa474). then characterized and differentiated to NPC as previously described39. […]
# NPCs were fixed with 100% iced-cold methanol for 5 min and incubated in blocking solution (1% (v/v) normal goat serum, 0.1% (w/v) bovine serum albumin (BSA), 0.1% (v/v) Triton X-100 in DPBS). […] Slides were mounted with VECTASHIELD Mounting Medium with DAPI, incubated for 24 h at 4° C. and imaged with a Zeiss Axio Imager M2 fluorescence microscope or under an inverted microscope (Nikon; Eclipse Ti-E) equipped with a pre-centred fibre illuminator (Nikon; Intensilight C-HGFI), B/W CCD digital camera (Hamamatsu; ORCA-E.R.). Fluorescence quantification was performed. after appropriate thresholding using the ImageJ software (NIH). The pixel intensity profile of ATP5A immunodecoration was analyzed across the maximal axis of the cell that departs from the nucleus, using the plot profile plugin of ImageJ software. […]
# [3] = test system: mouse cortical primary neurons; assay: MG132-induced neuronal apoptosis (annexin V/7-AAD flow cytometry); format: cell-based; details: MG132 24 hours; inhibitor 0.01 μM
# Description: Primary cultures of C57BL/6 mice cortical neurons were prepared from fetal animals of 14.5 days of gestation, seeded at 1.8·10^5 cells/cm^2 in plastic plates coated with poly-D-lysine (10 mg/ml) and incubated in Neurobasal (Life Technologies) supplemented with 2 mM glutamine, 5 mM of glucose, 0.25 mM pyruvate and 2% B27 supplement (Life Technologies). Cells were incubated at 37° C. in a humidified 5% CO2-containing atmosphere. At 72 hours after plating, medium was replaced using Neurobasal (Life Technologies) supplemented with 2 mM glutamine, 5 mM glucose, 0.25 mM pyruvate and 2% B27 supplement (Life Technologies) minus antioxidants (MAO; i.e., lacking vitamin E, vitamin E acetate, superoxide dismutase, catalase and glutathione). […] APC/C-conjugated annexin-V and 7-amino-actinomycin D (7-AAD) (Becton Dickinson Biosciences, BDB, San Jose, Calif., USA) were used to determine quantitatively the percentage of apoptotic neurons by flow cytometry. Cells were stained with annexin V-APC and 7-AAD, following the manufacturer's instructions, and were analysed on a FACScalibur™ flow cytometer (15 mW argon ion laser tuned at 488 nm; CellQuest software, Becton Dickinson Biosciences) using the CellQuest software (BDB). Both GFP+ and GFP− cells were analyzed separately, and the annexin V-APC-stained cells that were 7-AAD-negative were considered to be apoptotic.
# [4] = test system: MCAO model of brain ischemia; assay: MCAO model of brain ischemia, rota-rod test; format: in vivo, C57BL/6-J mice; details: 60 mg/kg bolus via jugular vein after reperfusion; 30 mins occlusion; test 24 hours after MCAO
# Description: For the MCAO model of brain ischemia, 10 weeks-old male C57BL/6-J mice were used (n=8 animals per condition) following a published protocol (1,2). Mice were anesthetized with 4% (vol/vol) Sevoflurane in a mixture of ⅓ O2 and ⅔ N2O using a vaporizer. After the induction of anesthesia, Sevoflurane was reduced to 3% (vol/vol). The body temperature was maintained at 36.5° C. during the surgery. A laser-Doppler flow probe attached to a flowmeter was located over the thinned skull in the MCAO area (4 mm lateral to bregma) to monitor the relative cerebral brain flow during the experiment. Under operating microscope, the common, external and internal carotid arteries were dissected from connective tissue through a midline neck incision. The common carotid artery (CCA) was carefully dissected from the surrounding nerves with caution to avoid harming of the vagal nerve. A suture monofilament was introduced from the lumen of the external carotid artery (ECA) into the internal carotid artery (ICA) to a distance of 9-10 mm beyond the CCA bifurcation, in order to occlude the origin of middle cerebral artery (MCA). The filament was removed 30 mins after occlusion. AZ67 or compound 1 (60 mg/kg of body weight) or vehicle were administered in a bolus (200 μl) via the jugular vein immediately after reperfusion. […] The latency to fall was determined and expressed in seconds.
# [5] = test system: influenza A H1N1 in MDCK; format: cell-based; details: 0, 0.1 μM, 1 μM, 10 μM and 100 μM
# [6] = test system: primary neurons; assay: NADPH/NADP ratio under excitotoxic conditions induced by glutamate; format: cell-based; details: 0.01 μM, FIG. 4A
smiles,measurement,setting,value
"Cc1noc(C)c1Cn1cc(C#N)c2cc(Oc3ccc(NC(=O)[C@@H]4CCCN4)cc3)ccc21 [AZ67, (2S)-N-[4-({3-cyano-1-[(3,5-dimethyl-1,2-oxazol-4-yl)methyl]-1H-indol-5-yl}oxy)phenyl]pyrrolidine-2-carboxamide]",loss of perinuclear mitochondria,[1],rectified the loss of perinuclear mitochondria
same,loss of perinuclear mitochondria,[2],rectified the loss of perinuclear mitochondria
same,prevention of neuronal apoptosis caused by MG132,[3],~45%
same,improvement in rota-rod test performance (latency to fall),[4],~50%
same,antiviral activity (anti-HA immunostain),[5],demonstrate antiviral activity
same,NADPH/NADP ratio,[6],restore NADPH/NADP ratio
